Results: a compilation of properties of binary mixtures (doi:10.1021/acs.jced.1c00924)

Assay: xn = mol fraction of the nth substance listed
Conditions: 100 kPa

CCO + CCOP(=O)([O-])OCC.CC[n+]1ccn(C)c1
x2 = 0
Conditions | viscosity [mPa·s]
293.15 K | 1.18
298.15 K | 1.11
303.15 K | 0.98
308.15 K | 0.89
313.15 K | 0.82
323.15 K | 0.69
328.15 K | 0.65
333.15 K | 0.6
338.15 K | 0.56

CCOP(=O)([O-])OCC.CC[n+]1ccn(C)c1 + CCO
viscosity [mPa·s]
Conditions | 293.15 K | 298.15 K | 303.15 K | 308.15 K | 313.15 K | 318.15 K | 323.15 K | 328.15 K | 333.15 K | 338.15 K
x1 = 0.1002 | 3.82 | 3.46 | 3.1 | 2.8 | 2.58 | 2.39 | 2.28 | – | 2.05 | 1.94
x1 = 0.1992 | 8.71 | 7.58 | 6.67 | 5.96 | 5.38 | 4.92 | 4.57 | – | 4.06 | 3.86
x1 = 0.2987 | 18.6 | 15.84 | 13.57 | 11.74 | 10.35 | 9.23 | 8.34 | 7.65 | 7 | 6.48
x1 = 0.4007 | 35.9 | – | – | 20.9 | 18 | 15.6 | 13.64 | 12.11 | – | 9.9
x1 = 0.5007 | 65.5 | 52 | 41.8 | 34.4 | 28.6 | 24 | 20.8 | 18.1 | 15.82 | 13.95
x1 = 0.5993 | 106.8 | 83 | 64.6 | 51.6 | 41.6 | 34.2 | 28.8 | – | 20.8 | 18.1
x1 = 0.7003 | – | – | 102.1 | – | 63.3 | 50.3 | – | 33.5 | 28.1 | –
x1 = 0.8 | 256 | 187 | – | 107.6 | 82.5 | 65.4 | 52.6 | 42.7 | 35 | 29.3
x1 = 0.8985 | – | 271 | – | 146.8 | 112.5 | – | 68.7 | 54.6 | 44.5 | 36.5
x1 = 1 | – | 397 | 285 | 209 | – | 117.2 | 91.7 | 71.2 | 57.3 | 46.2
